The text below walks through data of US8173694B2, “Therapeutic agent” (Pentraxin Therapeutics Limited, priority 2001, dated 2012).

The target in test [1] is serum amyloid P component (SAP) (Homo sapiens, UniProt P02743). Description: Inhibition of SAP binding to amyloid fibrils in vitro. The conditions noted are these: in vitro inhibition of binding of SAP to amyloid fibrils, protocol of EP 0915088 page 10; read-out: IC50. The text has this:
A method for screening and testing inhibitors of serum amyloid P component (SAP) binding to amyloid fibrils in vitro was devised and used in collaboration with F Hoffmann-La Roche Ltd to identify a suitable lead molecule for drug development. A library of candidate compounds was screened accordingly. The subsequent collaborative medicinal chemistry programme led to synthesis of a family of dicarboxylic acid, pyrrolidone ring containing molecules, of which the most studied is (R)-1-[6-(R)-2-Carboxy-pyrrolidin-1-yl]-6-oxo-hexanoyl]pyrrolidine-2-carboxylic acid. This molecule and related compounds (EP-A-0915088) are modestly potent inhibitors of SAP binding to amyloid fibrils in vitro, with IC50 values around 0.5-1.0 μM.
Further studies determined that each of the following bis-D-Proline compounds were tested for their ability to deplete SAP in vivo as described above. Each of the compounds identified below successfully depleted SAP. In addition, certain of the compounds were further tested for in vitro inhibition of binding of SAP to amyloid fibrils in accordance with the protocol provided in EP 0915088 at page 10, as referenced above. The results are shown in the second column below, where applicable.

The subject of test [2] is SAP. Description: SAP binding to experimentally induced amyloid deposits in mice. In kind it is in vivo, mouse. From the text: The potency of (R)-1-[6-(R)-2-Carboxy-pyrrolidin-1-yl]-6-oxo-hexanoyl]pyrrolidine-2-carboxylic acid in vivo was initially considered to be consistent with its lower IC50 value in vitro. However the decameric assembly of pentameric SAP molecules, induced by the cross linking capacity of the palindromic drug, is an abnormal molecular configuration which, according to the present invention, will be recognised in vivo and promptly cleared from the circulation. This action of the drug, leading to massive depletion of SAP from the plasma, makes a critical contribution to removal of SAP from the amyloid deposits because the SAP in amyloid is derived from, and in equilibrium with, the plasma SAP pool.

Test [3] deals with SAP (Homo sapiens, UniProt P02743). The conditions noted are these: known low molecular weight ligands; cited from earlier work.
Sequence of SAP (Homo sapiens, UniProt P02743) (P02743 20-223): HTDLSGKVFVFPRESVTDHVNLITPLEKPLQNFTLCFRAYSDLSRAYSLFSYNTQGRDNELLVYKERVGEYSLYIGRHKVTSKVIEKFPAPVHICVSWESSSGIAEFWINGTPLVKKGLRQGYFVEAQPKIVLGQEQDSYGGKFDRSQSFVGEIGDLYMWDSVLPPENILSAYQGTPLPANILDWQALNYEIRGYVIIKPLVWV

Sequence of serum amyloid P component (SAP) (P02743 20-223): as above

As usually defined, the IC50 is the midpoint of a concentration-inhibition curve. As to `O=C(O)[C@H]1CCCN1C(=O)c1ccc(C(=O)N2CCC[C@@H]2C(=O)O)cc1`, the half-maximal inhibitory concentration (IC50) in test [1] is 700 nM.
With `O=C(O)[C@H]1CCCN1C(=O)Cc1cccc(CC(=O)N2CCC[C@@H]2C(=O)O)c1`, in test [1], the IC50 was found to be 700 nM.
Consider `Cc1c(OCC(=O)N2CCC[C@@H]2C(=O)O)cccc1OCC(=O)N1CCC[C@@H]1C(=O)O`, for which the 50% inhibitory concentration (IC50) in test [1] was 500 nM.
Same read-out and setting: the same measure for `O=C(O)[C@H]1CCCN1C(=O)COc1ccc(OCC(=O)N2CCC[C@@H]2C(=O)O)cc1`: 300 nM.
For the molecule `O=C(O)[C@H]1CCCN1C(=O)Cc1ccc(CC(=O)N2CCC[C@@H]2C(=O)O)cc1`, the IC50 in test [1] was found to be 350 nM.
Same read-out and setting: the same measure for `O=C(O)[C@H]1CCCN1C(=O)COc1ccccc1OCC(=O)N1CCC[C@@H]1C(=O)O`: 400 nM.
`CC(CS)C(=O)N1CCC[C@@H]1C(=O)O` (stereo partly drawn) [1-(3-Mercapto-2-methyl-1-oxopropyl)-D-proline]: in test [2], the “Binding of SAP to experimentally induced amyloid deposits” value was “inhibits binding of SAP” and the “Dissociation of SAP already bound in amyloid deposits” value is listed as “dissociates SAP that is already bound in the deposits”.
As to `CO[C@@H]1O[C@@H]2COC(C)(C(=O)O)O[C@@H]2[C@H](O)[C@H]1O` (stereo partly drawn) [MOβDG, methyl 4,6-O-(1-carboxyethylidene)-β-D-galactopyranoside], the “Affinity of binding by SAP” value in test [3] is listed as “about millimolar”.
As to `NCCOP(=O)(O)O` [phosphoethanolamine], the “Affinity of binding by SAP” value in test [3] is listed as “about millimolar”.
